The target of assay [1] is T1, Human PDGFRα, cytoplasmic domain (GST-PDGFRα) (Homo sapiens, UniProt P16234).
T1 construct: made in house
The experiment in a line: Human PDGFRα biochemical inhibition assay (off-chip Mobility Shift Assay).

Assay [2] deals with T2, Human PDGFRβ, cytoplasmic domain (GST-PDGFRβ) (Homo sapiens, UniProt P09619).
T2 construct: made in house
The assay can be described thus: Human PDGFRβ biochemical inhibition assay (off-chip Mobility Shift Assay). The method, then: Human PDGFRβ Biochemical Inhibition Assay
The compounds described herein were tested for the ability to inhibit activity of PDGFRβ which was achieved via use of an off-chip Mobility Shift Assay (MSA). Human PDGFRβ, cytoplasmic domain [557-1106 (end) amino acids of accession number NP_002600.1 (SEQ ID NO: 3)] was expressed as N-terminal GST-fusion protein (88 kDa) using baculovirus expression system (SEQ ID NO: 4). GST-PDGFRβ was purified by using glutathione sepharose chromatography. Test compounds were dissolved in and diluted with dimethylsulfoxide (DMSO) to achieve 1 mM concentration. Then the solution was further diluted 25-fold with assay buffer to make the final test compound solution. The reference compound, Staurosporine, used as the assay positive control was prepared similarly. The 4× compound solution/substrate (CSKtide, 1000 nM)/ATP (Km ATP)/Mg Metal (5 mM) was prepared with kit buffer (20 mM HEPES, 0.01% Triton X-100, 5 mM DTT, pH 7.5), and 2× kinase solution was prepared with assay buffer (20 mM HEPES, 0.01% Triton X-100, 1 mM DTT, pH 7.5). The 5 μL of 4× compound solution, […] of 4× Substrate/ATP/Metal solution, and […] of 2× kinase solution were mixed and incubated in a well of polypropylene 384 well microplate for 1 hour at room temperature. […] of Termination Buffer (QuickScout Screening Assist MSA; Carna Biosciences) was added to the well. The reaction mixture was applied to LabChip™ system (Perkin Elmer), and the product and substrate peptide peaks were separated and quantitated. The kinase reaction was evaluated by the product ratio calculated from peak heights of product(P) and substrate(S) peptides (P/(P+S)). The readout value of reaction control (complete reaction mixture) was set as a 0% inhibition, and the readout value of background (Enzyme(−)) was set as a 100% inhibition, then the percent inhibition of each test solution was calculated.
With respect to PDGFRβ activity: “+++” denotes an IC50 of less than 300 nM; “++” denotes an IC50 of from 300 nM to less than 1000 nM; and “+” denotes an IC50 of 1000 nM or more.

Each structure is given as a SMILES string. Counter-ions that a name gives are not always drawn.

Usually IC50 stands for the point on the concentration scale where inhibition reaches its midpoint.

T2 sequence (P09619 with tags, fused parts or gaps): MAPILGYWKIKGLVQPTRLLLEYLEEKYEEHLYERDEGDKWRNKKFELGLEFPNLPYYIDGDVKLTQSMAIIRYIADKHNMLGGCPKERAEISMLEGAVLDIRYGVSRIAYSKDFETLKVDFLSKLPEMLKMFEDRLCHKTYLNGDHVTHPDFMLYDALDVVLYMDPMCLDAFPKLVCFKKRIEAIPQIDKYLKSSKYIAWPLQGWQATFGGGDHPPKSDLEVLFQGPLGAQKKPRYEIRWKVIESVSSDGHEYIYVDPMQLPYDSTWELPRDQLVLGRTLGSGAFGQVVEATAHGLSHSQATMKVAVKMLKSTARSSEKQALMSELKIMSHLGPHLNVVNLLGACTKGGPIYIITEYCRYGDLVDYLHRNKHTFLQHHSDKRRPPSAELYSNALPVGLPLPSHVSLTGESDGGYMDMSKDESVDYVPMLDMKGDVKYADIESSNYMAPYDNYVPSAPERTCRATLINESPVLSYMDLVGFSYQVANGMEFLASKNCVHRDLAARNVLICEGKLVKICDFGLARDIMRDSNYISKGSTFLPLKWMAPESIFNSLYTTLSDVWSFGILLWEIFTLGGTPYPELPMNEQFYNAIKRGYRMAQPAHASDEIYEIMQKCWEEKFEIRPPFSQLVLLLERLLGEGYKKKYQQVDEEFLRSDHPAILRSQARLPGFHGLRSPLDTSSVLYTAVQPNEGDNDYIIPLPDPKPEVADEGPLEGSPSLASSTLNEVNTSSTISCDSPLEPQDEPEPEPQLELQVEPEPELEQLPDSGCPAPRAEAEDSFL
T1 sequence (P16234 550-1089 T674I): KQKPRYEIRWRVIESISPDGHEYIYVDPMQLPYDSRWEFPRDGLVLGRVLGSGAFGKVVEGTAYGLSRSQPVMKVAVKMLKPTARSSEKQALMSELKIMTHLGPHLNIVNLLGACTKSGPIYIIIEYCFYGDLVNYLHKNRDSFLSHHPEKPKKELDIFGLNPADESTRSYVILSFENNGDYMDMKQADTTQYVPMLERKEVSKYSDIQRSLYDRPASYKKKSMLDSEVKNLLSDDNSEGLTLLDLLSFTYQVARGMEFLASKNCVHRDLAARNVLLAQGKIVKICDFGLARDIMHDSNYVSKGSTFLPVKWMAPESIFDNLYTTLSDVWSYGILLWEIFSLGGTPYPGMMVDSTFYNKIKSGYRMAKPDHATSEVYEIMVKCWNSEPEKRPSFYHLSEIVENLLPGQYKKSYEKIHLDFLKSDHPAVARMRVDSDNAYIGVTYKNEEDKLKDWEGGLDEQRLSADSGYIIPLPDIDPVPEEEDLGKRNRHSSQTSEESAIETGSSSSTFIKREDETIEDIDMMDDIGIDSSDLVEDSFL

Take `CCn1cc2ncc(N[C@@H](C)c3cccc(NC(=O)c4cnc(C(C)O)s4)c3)nc2n1` (stereo partly drawn) [Compound 381, N-(3-((S)-1-((2-ethyl-2H-pyrazolo[3,4-b]pyrazin-6-yl)amino)ethyl)phenyl)-2-(1-hydroxyethyl)thiazole-5-carboxamide]: the IC50 in assay [1] was less than 300 nM; in assay [2] it was 300 to 1000 nM.

Take `CCn1cc2ncc(N[C@@H](C)c3cccc(NC(=O)Cc4cccc(C(F)(F)F)n4)c3)nc2n1` [Compound 642, (S)-N-(3-(1-((2-ethyl-2H-pyrazolo[3,4-b]pyrazin-6-yl)amino)ethyl)phenyl)-2-(6-(trifluoromethyl)pyridin-2-yl) acetamide]: the concentration for half-maximal inhibition (IC50) was less than 300 nM in assay [1] and 300 to 1000 nM in assay [2].

With `CCn1cc2ncc(N[C@@H](C)c3cc(NC(=O)Cc4ccc5c(n4)OCCC5)ccc3C)nc2n1` [Compound 721, (S)-2-(3,4-dihydro-2H-pyrano[2,3-b]pyridin-7-yl)N-(3-(1-((2-ethyl-2H-pyrazolo[3,4-b]pyrazin-6-yl)amino)ethyl)-4-methylphenyl)acetamide], the IC50 is less than 300 nM in assay [1] and no less than 1000 nM in assay [2].

Turning to `CCn1cc2ncc(N[C@@H](C)c3cccc(NC(=O)c4ccc(CN5CC[C@@H](O)C5)c(C)c4)c3)nc2n1` [Compound 482, N-(3-((S)-1-((2-ethyl-2H-pyrazolo[3,4-b]pyrazin-6-yl)annno)ethyl)phenyl)-4-(((R)-3-hydroxypyrrolidin-1-yl)methyl)-3-methylbenzamide], the IC50 is less than 300 nM in assay [1] and 300 to 1000 nM in assay [2].

On to `Cc1n[nH]c2ncc(N[C@@H](C)c3cccc(NC(=O)c4cnn(C5CC5)c4)c3)nc12` [Compound 543, (S)-1-cyclopropyl-N-(3-(1-((3-methyl-1H-pyrazolo[3,4-b]pyrazin-5-yl)amino)ethyl)phenyl)-1H-pyrazole-4-carboxamide], for which the 50% inhibitory concentration (IC50) in assay [1] and in assay [2] was less than 300 nM in each case.

With `CCn1cc(C(=O)Nc2ccc(F)c([C@H](C)Nc3cnc4cn(CC)nc4n3)c2)cn1` [Compound 310, (S)-1-ethyl-N-(3-(1-((2-ethyl-2H-pyrazolo[3,4-b]pyrazin-6-yl)amino)ethyl)-4-fluorophenyl)-1H-pyrazole-4-carboxamide], the half-inhibitory concentration (IC50) in assay [1] and in assay [2] was less than 300 nM each time.

On to `Cc1cc(C(=O)Nc2cccc([C@H](C)Nc3cnc4cnn(C)c4n3)c2)cnc1OCC(C)C` [Compound 229, (S)-6-isobutoxy-5-methyl-N-(3-(1-((1-methyl-1H-pyrazolo[3,4-b]pyrazin-6-yl)amino)ethyl)phenyl)nicotinamide], for which the 50% inhibitory concentration (IC50) in assay [1] and in assay [2] was less than 300 nM throughout.

For `C[C@H](Nc1cnc2cnn(C)c2n1)c1cccc(NC(=O)c2cc(C(F)(F)F)n(C)n2)c1` [Compound 164, (S)-1-methyl-N-(3-(1-((1-methyl-1H-pyrazolo[3,4-b]pyrazin-6-yl)amino)ethyl)phenyl)-5-(trifluoromethyl)-1H-pyrazole-3-carboxamide], the IC50 in assay [1] and in assay [2] was less than 300 nM throughout.

For the molecule `CCn1cc2ncc(N[C@@H](C)c3cccc(NC(=O)c4ccc(N5CCOCC5)c(F)c4)c3)nc2n1` [Compound 366, (S)-N-(3-(1-((2-ethyl-2H-pyrazolo[3,4-b]pyrazin-6-yl)amino)ethyl)phenyl)-3-fluoro-4-morpholinobenzamide], the IC50 in assay [1] and in assay [2] was less than 300 nM in each case.

On to `Cc1cncc(C(=O)Nc2cccc([C@H](C)Nc3cnc4ccccc4n3)c2)c1` [Compound 4, (5)-5-methyl-N-(3-(1-(quinoxalin-2-ylamino)ethyl)phenyl)nicotinamide trifluoroacetate], for which the IC50 in assay [1] and in assay [2] was less than 300 nM throughout.

`CCn1cc2ncc(N[C@@H](C)c3cccc(NC(=O)c4cncc(C)c4)c3)cc2n1` [Compound 11, (S)—N-(3-(1-((2-ethyl-2H-pyrazolo[4,3-b]pyridin-6-yl)amino)ethyl)phenyl)-5-methylnicotinamide]: the IC50 in assay [1] and in assay [2] was less than 300 nM each time.

`CCn1cc2ncc(N[C@@H](C)c3cccc(NC(=O)Nc4cnc(C5CC5)c(C)c4)c3)nc2n1` [Compound 734, (S)-1-(6-cyclopropyl-5-methylpyridin-3-yl)-3-(3-(1-((2-ethyl-2H-pyrazolo[3,4-b]pyrazin-6-yl)amino)ethyl)phenyl)urea]: the IC50 in assay [1] and in assay [2] was less than 300 nM in each case.

For `Cc1c[nH]c2ncc(N[C@@H](C)c3cccc(NC(=O)c4cnn(C5CC5)c4)c3)nc12` [Compound 573, (s)-1-cyclopropyl-N-(3-(1-((7-methyl-5H-pyrrolo[2,3-b]pyrazin-2-yl)amino)ethyl)phenyl)-1H-pyrazole-4-carboxamide], the IC50 in assay [1] and in assay [2] was less than 300 nM each time.

Take `CCn1cc2ncc(N[C@@H](C)c3cccc(NC(=O)c4ccc(C(F)(F)F)c(C)c4)c3)nc2n1` [Compound 439, (S)-N-(3-(1-((2-ethyl-2H-pyrazolo[3,4-b]pyrazin-6-yl)amino)ethyl)phenyl)-3-methyl-4-(trifluoromethyl)benzamide]: the IC50 in assay [1] and in assay [2] was less than 300 nM throughout.

As for `CCn1cc2ncc(N[C@@H](C)c3cccc(NC(=O)c4cnc(OC)c(Cl)c4)c3)nc2n1` [Compound 356, (S)-5-chloro-N-(3-(1-((2-ethyl-2H-pyrazolo[3,4-b]pyrazin-6-yl)amino)ethyl)phenyl)-6-methoxynicotinamide], the IC50 in assay [1] and in assay [2] was less than 300 nM in each case.

For `C[C@H](Nc1cnc2cn[nH]c2n1)c1cccc(NC(=O)c2cncc(C3CCC3)c2)c1` [Compound 96, (S)-N-(3-(1-((1H-pyrazolo[3,4-b]pyrazin-6-yl)amino)ethyl)phenyl)-5-cyclobutylnicotinamide], the IC50 in assay [1] and in assay [2] was less than 300 nM in each case.

With `CCn1cc2ncc(N[C@@H](C)c3cccc(NC(=O)Cc4ccc(F)c(F)c4)c3)nc2n1` [Compound 648, (S)-2-(3,4-difluorophenyl)-N-(3-(1-((2-ethyl-2H-pyrazolo[3,4-b]pyrazin-6-yl)amino)ethyl)phenyl)acetamide], the IC50 in assay [1] and in assay [2] was less than 300 nM in each case.

Consider `Cc1c[nH]c2ncc(N[C@@H](C)c3cccc(NC(=O)c4cc(C(C)C)on4)c3)nc12` [Compound 554, (S)-5-isopropyl-N-(3-(1-((7-methyl-5H-pyrrolo[2,3-b]pyrazin-2-yl)amino)ethyl)phenyl)isoxazole-3-carboxamide], for which the IC50 in assay [1] and in assay [2] was less than 300 nM in each case.

In the case of `CCn1cc2ncc(N[C@@H](C)c3cc(NC(=O)c4cnc(OC)c(C)c4)ccc3F)nc2n1` [Compound 317, (S)-N-(3-(1-((2-ethyl-2H-pyrazolo[3,4-b]pyrazin-6-yl)amino)ethyl)-4-fluorophenyl)-6-methoxy-5-methylnicotinamide], the IC50 in assay [1] and in assay [2] was less than 300 nM throughout.

`C[C@H](Nc1cnc2[nH]ccc2n1)c1cc(NC(=O)c2ccc(C3CC3)nc2)ccc1F` [Compound 599, (S)-N-(3-(1-((5H-pyrrolo[2,3-b]pyrazin-2-yl)amino)ethyl)-4-fluorophenyl)-6-cyclopropylnicotinamide]: the IC50 in assay [1] and in assay [2] was less than 300 nM in each case.

Take `CCn1cc2ncc(N[C@@H](C)c3cc(NC(=O)Cc4ccc(F)c(C)n4)ccc3C)nc2n1` [Compound 675, (S)-N-(3-(1-((2-ethyl-2H-pyrazolo[3,4-b]pyrazin-6-yl)amino)ethyl)-4-methylphenyl)-2-(5-fluoro-6-methylpyridin-2-yl)acetamide]: the IC50 in assay [1] and in assay [2] was less than 300 nM throughout.

Take `Cc1cc2ncc(N[C@@H](C)c3cccc(NC(=O)c4cnn(C5CCC5)c4)c3)nc2s1` [Compound 609, (S)-1-cyclobutyl-N-(3-(1-((6-methylthieno[2,3-b]pyrazin-3-yl)amino)ethyl)phenyl)-1H-pyrazole-4-carboxamide]: the IC50 in assay [1] and in assay [2] was less than 300 nM throughout.

With `C[C@H](Nc1cnc2cnn(C)c2n1)c1cccc(NC(=O)[C@H]2C[C@H]2C(F)(F)F)c1` [Compound 53, (1S,2R)-N-(3-((S)-1-((1 methyl-1H-pyrazolo[3,4-d]pyrazin-6-yl)amino)ethyl)phenyl)-2-(trifluoromethyl)cyclopropane-1-carboxamide], the IC50 in assay [1] and in assay [2] was no less than 1000 nM in each case.

With `CCn1cc2ncc(N[C@@H](C)c3cc(NC(=O)c4cnc(N5CCCC5)c(C)c4)ccc3F)nc2n1` [Compound 336, (S)-N-(3-(1-((2-ethyl-2H-pyrazolo[3,4-b]pyrazin-6-yl)amino)ethyl)-4-fluorophenyl)-5-methyl-6-(pyrrolidin-1-yl) nicotinamide], the IC50 in assay [1] and in assay [2] was less than 300 nM throughout.
